# Assay results from paper PMC7216583 (Parasites & Vectors, 2020).
# Where a name gives a salt, the structure may show the parent alone. Read-outs that look alike come from different tables or passages of the source.
# Assays:
# [1] = tested on: Toxoplasma gondii RH-2F tachyzoites; experiment: microbe, parasite or virus in culture; conditions: 72 h
# HSP90α = conditions: read-out: IC50 HSP90α; ref library vendor description; cited from earlier work
# P-glycoprotein = conditions: cited from earlier work
# human muscarinic AChR M3 = biological target: human muscarinic AChR M3; parameters: method as in vendor brief description; conditions: ref vendor brief description; cited from earlier work
# human muscarinic AChR M5 = biological target: human muscarinic AChR M5; parameters: method as in vendor brief description; conditions: ref vendor brief description; cited from earlier work
# human muscarinic AChR M2 = biological target: human muscarinic AChR M2; parameters: method as in vendor brief description; conditions: ref vendor brief description; cited from earlier work
# human muscarinic AChR M4 = biological target: human muscarinic AChR M4; parameters: method as in vendor brief description; conditions: ref vendor brief description; cited from earlier work
# human muscarinic AChR M1 = biological target: human muscarinic AChR M1; parameters: method as in vendor brief description; conditions: ref vendor brief description; cited from earlier work
# PDE5 = conditions: read-out: IC50 PDE5; ref vendor brief description; cited from earlier work
# [2] = biological target: angiotensin II type 1 (AT1) receptor; parameters: method as in vendor brief description; conditions: ref vendor brief description; cited from earlier work
# GSK-3α = tested on: GSK-3α; parameters: method as in vendor brief description; conditions: ref vendor brief description; cited from earlier work
# Flt-1 = tested on: Flt-1; parameters: method as in vendor brief description; conditions: ref vendor brief description; cited from earlier work
# AXL = tested on: AXL; parameters: method as in vendor brief description; conditions: ref vendor brief description; cited from earlier work
# Kit = tested on: Kit; parameters: method as in vendor brief description; conditions: ref vendor brief description; cited from earlier work
# in vitro = conditions: human
# VEGFR-2 = tested on: VEGFR-2; parameters: method as in vendor brief description; conditions: ref vendor brief description; cited from earlier work
# Ret = tested on: Ret; parameters: method as in vendor brief description; conditions: ref vendor brief description; cited from earlier work
# Flt-4 = tested on: Flt-4; parameters: method as in vendor brief description; conditions: ref vendor brief description; cited from earlier work
# tyrosinase = biological target: tyrosinase; parameters: method as in vendor brief description; conditions: ref vendor brief description; cited from earlier work
# CETP = tested on: CETP; parameters: method as in vendor brief description; conditions: ref vendor brief description; cited from earlier work
# S1P = tested on: S1P; parameters: method as in vendor brief description; conditions: ref vendor brief description; cited from earlier work
# [3] = biological target: H3K27 histone demethylase JMJD3/UTX; parameters: method as in vendor brief description; conditions: ref vendor brief description; cited from earlier work
# PI3Kγ = tested on: PI3Kγ; parameters: method as in vendor brief description; conditions: ref vendor brief description; cited from earlier work
# β-adrenoceptor = biological target: β-adrenoceptor; parameters: method as in vendor brief description; conditions: ref vendor brief description; cited from earlier work
# recombinant human mGlu2 = biological target: recombinant human mGlu2; parameters: method as in vendor brief description; conditions: ref vendor brief description; cited from earlier work
# [4] = biological target: rat neurons expressing native mGlu2/3 receptors; parameters: method as in vendor brief description; conditions: ref vendor brief description; cited from earlier work
# [5] = biological target: recombinant human mGlu3 receptors; parameters: method as in vendor brief description; conditions: ref vendor brief description; cited from earlier work
# noradrenaline α2C = tested on: noradrenaline α2C; parameters: method as in vendor brief description; conditions: ref vendor brief description; cited from earlier work
# 5-HT7 receptor = biological target: 5-HT7 receptor; parameters: method as in vendor brief description; conditions: ref vendor brief description; cited from earlier work
# 5-HT1A = tested on: 5-HT1A; parameters: method as in vendor brief description; conditions: ref vendor brief description; cited from earlier work
# 5-HT2A = tested on: 5-HT2A; parameters: method as in vendor brief description; conditions: ref vendor brief description; cited from earlier work
# dopamine D2 = tested on: dopamine D2; parameters: method as in vendor brief description; conditions: ref vendor brief description; cited from earlier work
# β3-adrenoceptor = tested on: β3-adrenoceptor; parameters: method as in vendor brief description; conditions: ref vendor brief description; cited from earlier work
# 20S proteasome β5 = tested on: 20S proteasome β5; parameters: method as in vendor brief description; conditions: read-out: IC50 CT-L activity of 20S proteasome β5; ref vendor brief description; cited from earlier work
# LMP7 = tested on: LMP7; parameters: method as in vendor brief description; conditions: read-out: IC50 CT-L activity of 20S proteasome LMP7; ref vendor brief description; cited from earlier work
# CYP3A4 (P450) = tested on: CYP3A4 (P450); parameters: method as in vendor brief description; conditions: ref vendor brief description; cited from earlier work
# nonsense mutation = conditions: ref vendor brief description; read-out: EC50 nonsense mutation inhibition; cited from earlier work
# sodium channel = tested on: sodium channel; parameters: method as in vendor brief description; conditions: ref vendor brief description; cited from earlier work
# nAChR = tested on: nAChR; parameters: method as in vendor brief description; conditions: ref vendor brief description; cited from earlier work
# [6] = biological target: N-methyl-D-aspartate (NMDA) receptor; parameters: method as in vendor brief description; conditions: ref vendor brief description; cited from earlier work
# 5-HT3 = biological target: 5-HT3; parameters: method as in vendor brief description; conditions: ref vendor brief description; cited from earlier work
# Factor Xa = tested on: Factor Xa; parameters: method as in vendor brief description; conditions: ref vendor brief description; cited from earlier work
# [7] = biological target: histamine 1 (H1) receptor; parameters: method as in vendor brief description; conditions: ref vendor brief description; cited from earlier work
# PAFR = biological target: PAFR; parameters: method as in vendor brief description; conditions: ref vendor brief description; cited from earlier work
# myeloperoxidase = conditions: read-out: IC50 myeloperoxidase; ref vendor brief description; cited from earlier work
# [8] = tested on: Toxoplasma gondii RH-2F tachyzoites
# GSK-3β = tested on: GSK-3β; parameters: method as in vendor brief description; conditions: ref vendor brief description; cited from earlier work
# β2-adrenergic receptor = biological target: β2-adrenergic receptor; parameters: method as in vendor brief description; conditions: ref vendor brief description; cited from earlier work
# CYP2C9 = tested on: CYP2C9; parameters: method as in vendor brief description; conditions: ref vendor brief description; cited from earlier work
# 4-hydroxylation = tested on: 4-hydroxylation; parameters: method as in vendor brief description; conditions: ref vendor brief description; cited from earlier work
# class I PI3K = tested on: class I PI3K; parameters: method as in library vendor description; conditions: ref library vendor description; read-out: IC50 pan-class I PI3K; cited from earlier work
# [9] = read-out: Parasite inhibition (%) mean, preliminary screen, mean
# [10] = read-out: Parasite inhibition (%) mean, preliminary screen of compound library, mean
smiles,measurement,setting,value
CCNC(=O)c1noc(-c2cc(C(C)C)c(O)cc2O)c1-c1ccc(CN2CCOCC2)cc1 [AUY922 (NVP-AUY922)],inhibition of growth at 5 µM,[1]; [9],8.2%
COC1CCN(C(=O)c2cc(Cc3n[nH]c(=O)c4ccccc34)ccc2F)CC1 [AZD2461],inhibition of growth at 5 µM,[1]; [10],11%
same,P-glycoprotein substrate property,P-glycoprotein,AZD2461 is a poor P-glycoprotein substrate with lower affinity for Pgp than does olaparib.
O=C(O[C@H]1C[N+]2(CCCOc3ccccc3)CCC1CC2)C(O)(c1cccs1)c1cccs1 [Aclidinium Bromide],Ki,human muscarinic AChR M3,0.14 nM
same,inhibition of growth at 5 µM,[1]; read-out: Parasite inhibition (%) mean,1.8%
same,Ki,human muscarinic AChR M5,0.16 nM
same,Ki,human muscarinic AChR M2,0.14 nM
same,Ki,human muscarinic AChR M4,0.21 nM
same,Ki,human muscarinic AChR M1,0.1 nM
COc1ccc(CN=c2[nH]c(N3CCC[C@H]3CO)ncc2C(=O)NCc2ncccn2)cc1Cl [Avanafil],inhibition of growth at 5 µM,[1]; [10],7.5%
same,IC50,PDE5,1 nM
CCOc1nc2cccc(C(=O)O)c2n1Cc1ccc(-c2ccccc2-c2nc(=O)o[nH]2)cc1 [Azilsartan (TAK-536)],inhibition of growth at 5 µM,[1]; [10],4.6%
same,IC50,[2],2.6 nM
Cc1c[nH]c(-c2cnc(NCCNc3ccc(C#N)cn3)nc2-c2ccc(Cl)cc2Cl)n1 [CHIR-99021 (CT99021) HCl],IC50,GSK-3α,10 nM
same,inhibition of growth at 5 µM,[1]; [10],43.9%
COc1cc2nccc(Oc3ccc(NC(=O)C4(C(=O)Nc5ccc(F)cc5)CC4)cc3)c2cc1OC [Cabozantinib malate],inhibition of growth at 5 µM,[1]; [10],80.4%
same,IC50,Flt-1,12 nM
same,viability at 72 h,in vitro; Host viability (%) mean,43.1%
same,IC50,VEGFR-2,0.035 nM
same,IC50,Flt-4,6 nM
Oc1ccc(OC2CCCCO2)cc1 (centres unmarked) [Deoxyarbutin],inhibition of growth at 5 µM,[1]; [10],33.4%
same,IC50,tyrosinase,50 nM
Cc1cc(C)c2c(c1)[C@@H](N(Cc1cc(C(F)(F)F)cc(C(F)(F)F)c1)c1nnn(C)n1)CCCN2C[C@H]1CC[C@H](C(=O)O)CC1 [Evacetrapib (LY2484595)],inhibition of growth at 5 µM,[1]; [10],22.6%
same,IC50,CETP,5.5 nM
CCCCCCCCc1ccc(CCC(N)(CO)CO)cc1 [Fingolimod (FTY720)],inhibition of growth at 5 µM,[1]; [10],10%
same,IC50,S1P,0.033 nM
O=C(O)CCNc1cc(N2CCc3ccccc3CC2)nc(-c2ccccn2)n1 [GSK J1],IC50,[3],60 nM
C[C@H](Nc1ncnc2[nH]cnc12)c1cc2cccc(Cl)c2c(=O)n1-c1ccccc1 [IPI-145 (INK1197)],inhibition of growth at 5 µM,[1]; [10],1.9%
same,IC50,PI3Kγ,50 nM
CCc1cc2c(cc1CC)CC(NC[C@H](O)c1ccc(O)c3[nH]c(=O)ccc13)C2 [Indacaterol Maleate],inhibition of growth at 5 µM,[1]; [10],-8.9%
same,pKi β-adrenoceptor,β-adrenoceptor,Indacaterol is an ultra-long-acting β-adrenoceptor agonist with pKi of 7.36.
N[C@@]1(C(=O)O)CS(=O)(=O)[C@H]2[C@H](C(=O)O)[C@H]21 [LY2140023 (LY404039)],inhibition of growth at 5 µM,[1]; [10],2.9%
same,Ki,recombinant human mGlu2,149 nM
same,Ki,[4],88 nM
same,Ki,[5],92 nM
"O=C1[C@@H]2[C@H]3CC[C@H](C3)[C@@H]2C(=O)N1C[C@@H]1CCCC[C@H]1CN1CCN(c2nsc3ccccc23)CC1 [Lurasidone HCl, reference compound]",IC50,noradrenaline α2C,10.8 nM
same,inhibition at 5 µM,[1]; read-out: Parasite inhibition (%) Mean ± SD,80.4 ± 1.5%
same,IC50,5-HT7 receptor,0.495 nM
same,IC50,5-HT1A,6.75 nM
same,IC50,5-HT2A,2.03 nM
same,viability,in vitro,86.9%
same,viability at 5 µM,in vitro,86.9 ± 1.7%
Nc1nc(CC(=O)Nc2ccc(CCNC[C@H](O)c3ccccc3)cc2)cs1 [Mirabegron (YM178)],EC50,β3-adrenoceptor,22.4 nM
same,inhibition of growth at 5 µM,[1]; [10],3.8%
COC[C@H](NC(=O)c1cnc(C)s1)C(=O)N[C@@H](COC)C(=O)N[C@@H](Cc1ccccc1)C(=O)C1(C)CO1 (some centres unmarked) [Oprozomib (ONX 0912)],inhibition of growth at 5 µM,[1]; [10],9%
same,IC50,20S proteasome β5,36 nM
same,IC50,LMP7,82 nM
Cc1ccc(-c2c(-c3nn(C)c4ncnc(N5CC[C@H](N6CCCCC6)C5)c34)cnn2C)cc1 [PF-4981517],inhibition of growth at 5 µM,[1]; [10],-8.9%
same,IC50,CYP3A4 (P450),30 nM
O=C(O)c1cccc(-c2noc(-c3ccccc3F)n2)c1 [PTC124 (Ataluren)],inhibition of growth at 5 µM,[1]; [10],-0.1%
same,EC50,nonsense mutation,~100 nM
CCN(CC)CCOC(=O)c1ccc(N)cc1 [Procaine (Novocaine) HCl],inhibition of growth at 5 µM,[1]; [10],3.7%
same,IC50,sodium channel,60000 nM
same,IC50,nAChR,45500 nM
same,IC50,[6],296000 nM
same,Kd,5-HT3,1700 nM
O=C(NCC1CN(c2ccc(N3CCOCC3=O)cc2)C(=O)O1)c1ccc(Cl)s1 (centres unmarked) [Rivaroxaban (Xarelto)],inhibition of growth at 5 µM,[1]; [10],0.4%
Cc1cncc(CN2CCC(=C3c4ccc(Cl)cc4CCc4cccnc43)CC2)c1 [Rupatadine Fumarate],inhibition of growth at 5 µM,[1]; [10],0.2%
same,Ki,[7],102 nM
same,Ki,PAFR,550 nM
O=N[O-].[Na+] [Sodium Nitrite],IC50,myeloperoxidase,1300 nM
same,Parasite inhibition (%) mean,[8],49.5%
Cn1sc(=O)n(Cc2ccccc2)c1=O [TDZD-8],IC50,GSK-3β,2000 nM
same,inhibition of growth at 5 µM,[1]; [10],12.8%
CC(C)(C)NCC(O)c1cc(O)cc(O)c1 (centres unmarked) [Terbutaline Sulfate],inhibition of growth at 5 µM,[1]; [10],40.1%
same,IC50,β2-adrenergic receptor,53 nM
CCCSc1nc(N[C@@H]2C[C@H]2c2ccc(F)c(F)c2)c2nnn([C@@H]3C[C@H](OCCO)[C@@H](O)[C@H]3O)c2n1 [Ticagrelor],inhibition of growth at 5 µM,[1]; [10],4.7%
same,IC50,CYP2C9,10500 nM
FC(F)c1nc2ccccc2n1-c1nc(N2CCOCC2)nc(N2CCOCC2)n1 [ZSTK474],inhibition of growth at 5 µM,[1]; [9],49.8%
same,IC50,class I PI3K,37 nM
